Reference: US4224316A, “Synthetic peptides having pituitary growth hormone releasing activity” (Beckman Instruments, Inc., priority 1979, dated 1980)
Square brackets hold non-standard residues; d marks the D form. Peptide text beside a SMILES is read from it.

Test system: pituitaries removed from 20 day old female rats
Test: In vitro growth hormone release study (incubated rat pituitaries, GH radioimmunoassay of the medium)
Format: cell-based
Conditions: mean ± SEM, two pituitaries in 1 ml lactated Ringer's solution, 36° C., peptide added hourly for 2 hours
Protocol: Female rats of the CD-l strain were housed in a constant temperature room at 24° C. with 14 hours light and 10 hours darkness. The rats were fed Purina brand rat chow ab libitum.
All studies were started between 0800 and 1000 hours.
Pituitaries were removed from 20 day old female rats. Two pituitaries were incubated at 36° C. in 1 ml of lactated Ringer's solution in 10 ml polytetrafluoroethylene beakers in a Dubnoff Shaker (90 cycles/min.). The pituitaries were incubated a total of 4 hours (P1, P2, I3, and I4). After two successive one hour preincubation periods (P1, P2), the peptide was added to the incubation medium hourly for 2 hours (I3, I4).
This in vitro study was performed in triplicate and a standard radioimmunoassay of growth hormone present in the incubation medium was performed in duplicate. The hormonal activity was calculated as the difference (Δ) of growth hormone (GH) levels between I3, I4 and P2, i.e., (I3 -P2) and (I4 -P2). P values were calculated by Students' t test using six growth hormone values for each value recorded.
The growth hormone radioimmunoassay reagents were distributed by the National Institute of Arthritis and […] (NIAMDD) program. The growth hormone values were calculated in terms of nanograms (ng) of a rat standard with a growth hormone potency of 0.61 units/mg.

Compound | In vitro growth hormone release (ΔGH between I3, I4 and P2) (1μg peptide) | In vitro growth hormone release (ΔGH between I3, I4 and P2) (10μg peptide) | In vitro growth hormone release (ΔGH between I3, I4 and P2) (100μg peptide)
NCCCC[C@H](NC(=O)[C@H](Cc1ccccc1)NC(=O)[C@@H](Cc1ccccc1)NC(=O)[C@H](Cc1c[nH]c2ccccc12)NC(=O)[C@H](N)Cc1ccccc1)C(N)=O [H2 N-D-Phe-Trp-D-Phe-Phe-Lys-CONH2] (H-[dF]W[dF]FK-NH2) | -109 ± 101 ng.increment.GH/ml incubation | 888 ± 120 ng.increment.GH/ml incubation | 963 ± 96 ng.increment.GH/ml incubation
CSCC[C@H](NC(=O)[C@H](Cc1ccccc1)NC(=O)[C@@H](Cc1ccccc1)NC(=O)[C@H](Cc1c[nH]c2ccccc12)NC(=O)[C@H](N)Cc1ccccc1)C(N)=O [H2 N-D-Phe-Trp-D-Phe-Phe-Met-CONH2] (H-[dF]W[dF]FM-NH2) |  | 1469 ± 153 ng.increment.GH/ml incubation | 1483 ± 168 ng.increment.GH/ml incubation
CSCC[C@H](NC(=O)[C@H](Cc1ccccc1)NC(=O)[C@@H](Cc1c[nH]c2ccccc12)NC(=O)[C@H](Cc1ccccc1)NC(=O)[C@H](N)Cc1ccccc1)C(N)=O [H2 N-D-Phe-Phe-D-Trp-Phe-Met-CONH2] (H-[dF]F[dW]FM-NH2) | 130 ± 143 ng.increment.GH/ml incubation | 955 ± 248 ng.increment.GH/ml incubation | 1060 ± 469 ng.increment.GH/ml incubation
